Calls of active or inactive are those of the source. The rule behind the calls is not given here.
How the values were obtained:
Myzus persicae [1] = assay: Insecticidal activity against Myzus persicae (green peach aphid) first nymphal stages grown on compound pre-treated mustard leaves assessed as insect mortality measured 72 hr post compound dose; format: functional
Myzus persicae [2] = assay: Insecticidal activity against Myzus persicae Fluf-RG-15 (green peach aphid) first nymphal stages exposed to 0.1 mg of active ingredient per liter of compound for 15 generations grown on compound pre-treated mustard leaves assessed as insect mortality measured 72 hr post compound dose; format: functional
Bemisia tabaci [3] = assay: Insecticidal activity against adult Bemisia tabaci biotype B (sweet potato whitefly) reared on compound pre-treated cotton seedlings assessed as insect mortality under out door conditions at 30 mg/L of active ingredient measured after 2 days post dose; format: functional
Spodoptera littoralis [4] = assay: Insecticidal activity against Spodoptera littorali first-instar stages grown on compound pre-treated cotton leaves assessed as insect mortality at 6.32 mg/L of active ingredient measured 72 hr post compound dose; format: functional
Bemisia tabaci [5] = assay: In-vivo inhibition of Bemisia tabaci (sweet potato whitefly) AChE isolated from white fly feeding on compound-pre-treated cotton leaves for 48 hr assessed as reduction in acetylthiocholine iodide hydrolysis by Ellman method based colorimetry; format: functional, organism-based
Bemisia tabaci [6] = assay: Insecticidal activity against adult Bemisia tabaci biotype B (sweet potato whitefly) reared on compound pre-treated cotton seedlings assessed as insect mortality under out door conditions at 30 mg/L of active ingredient measured after 1 days post dose; format: functional
Spodoptera littoralis [7] = assay: Insecticidal activity against Spodoptera littorali first-instar stages grown on compound pre-treated cotton leaves assessed as insect mortality at 16 mg/L of active ingredient measured after 14 days post dose; format: functional
Bemisia tabaci [8] = assay: Insecticidal activity against adult Bemisia tabaci biotype B (sweet potato whitefly) reared on cotton seedlings assessed as induction of insect mortality; format: functional
Bemisia tabaci [9] = assay: Insecticidal activity against thiamethoxam-resistant adult Bemisia tabaci ActRQ-G95 reared on compound-pre-treated cotton seedlings assessed as insect mortality; format: functional
Spodoptera littoralis [10] = assay: Insecticidal activity against Spodoptera littorali first-instar stages grown on compound pre-treated cotton leaves assessed as insect mortality at 16 mg/L of active ingredient measured up to 4 days post dose; format: functional
Spodoptera littoralis [11] = assay: Insecticidal activity against Spodoptera littorali first-instar stages grown on compound pre-treated cotton leaves assessed as insect mortality under out door conditions at 16 mg/L of active ingredient measured after 2 days post dose; format: functional
Bemisia tabaci [12] = assay: Insecticidal activity against adult Bemisia tabaci biotype B (sweet potato whitefly) reared on compound pre-treated cotton seedlings assessed as insect mortality at 20 mg/L of active ingredient measured up to 4 days post dose; format: functional
Spodoptera littoralis [13] = assay: Insecticidal activity against Spodoptera littorali first-instar stages grown on compound pre-treated cotton leaves assessed as insect mortality at 16 mg/L of active ingredient measured after 7 days post dose; format: functional
Bemisia tabaci [14] = assay: Insecticidal activity against adult Bemisia tabaci biotype B (sweet potato whitefly) exposed to 0.1 mg of active ingredient per liter of compound for 30 generations reared on compound pre-treated cotton seedlings assessed as insect mortality at 0.8 mg/L of active ingredient; format: functional
Bemisia tabaci [15] = assay: Insecticidal activity against adult Bemisia tabaci biotype B (sweet potato whitefly) reared on compound pre-treated cotton seedlings assessed as insect mortality at 20 mg/L of active ingredient measured after 7 days post dose; format: functional, organism-based
Bemisia tabaci [16] = assay: Insecticidal activity against adult Bemisia tabaci biotype B (sweet potato whitefly) reared on cotton seedlings assessed as insect mortality at 0.8 mg/L of active ingredient; format: functional
Bemisia tabaci [17] = assay: Insecticidal activity against adult Bemisia tabaci biotype B (sweet potato whitefly) reared on compound-pretreated cotton seedlings assessed as insect mortality at 0.5 mg/L of active ingredient measured 48 hr post compound dose; format: functional
Spodoptera littoralis [18] = assay: Insecticidal activity against Spodoptera littorali first-instar stages grown on compound pre-treated cotton leaves assessed as insect mortality at 0.5 mg/L of active ingredient measured 72 hr post compound dose; format: functional
Myzus persicae [19] = assay: Insecticidal activity against Myzus persicae (green peach aphid) first nymphal stages grown on compound pre-treated mustard leaves assessed as insect mortality at 1 mg/L of active ingredient measured 72 hr post compound dose; format: functional
Bemisia tabaci [20] = assay: Inhibition of oviposition of Bemisia tabaci biotype B (sweet potato whitefly) reared on cotton seedlings at 10 mg/L of active ingredient by oviposition nonchoice assay; format: functional, organism-based
AChE2 (Bemisia tabaci) = AChE2 (Bemisia tabaci) (UniProt B3SST5); assay: Inhibition of AChE in Bemisia tabaci (sweet potato whitefly) homogenates assessed as reduction in acetylthiocholine iodide hydrolysis by Ellman method based colorimetry
Bemisia tabaci [21] = assay: Inhibition of oviposition of Bemisia tabaci biotype B (sweet potato whitefly) reared on cotton seedlings at 10 mg/L of active ingredient by oviposition choice assay; format: functional, organism-based
Spodoptera littoralis [22] = assay: Insecticidal activity against Spodoptera littorali first-instar stages grown on compound pre-treated cotton leaves assessed as insect mortality measured 72 hr post compound dose; format: functional
Spodoptera frugiperda [23] = assay: Insecticidal activity against Spodoptera frugiperda (fall armyworm) fed with compound pre-treated sweet corn foliage 3 hr after compound application assessed as induction of mortality on day 1 and 2 post compound application; format: functional
Spodoptera frugiperda [24] = assay: Insecticidal activity against Spodoptera frugiperda (fall armyworm) fed with compound pre-treated sweet corn foliage 3 hr after compound application assessed as induction of mortality on day 0 post compound application; format: functional

Chain of AChE2 (Bemisia tabaci) (B3SST5 as listed by the source): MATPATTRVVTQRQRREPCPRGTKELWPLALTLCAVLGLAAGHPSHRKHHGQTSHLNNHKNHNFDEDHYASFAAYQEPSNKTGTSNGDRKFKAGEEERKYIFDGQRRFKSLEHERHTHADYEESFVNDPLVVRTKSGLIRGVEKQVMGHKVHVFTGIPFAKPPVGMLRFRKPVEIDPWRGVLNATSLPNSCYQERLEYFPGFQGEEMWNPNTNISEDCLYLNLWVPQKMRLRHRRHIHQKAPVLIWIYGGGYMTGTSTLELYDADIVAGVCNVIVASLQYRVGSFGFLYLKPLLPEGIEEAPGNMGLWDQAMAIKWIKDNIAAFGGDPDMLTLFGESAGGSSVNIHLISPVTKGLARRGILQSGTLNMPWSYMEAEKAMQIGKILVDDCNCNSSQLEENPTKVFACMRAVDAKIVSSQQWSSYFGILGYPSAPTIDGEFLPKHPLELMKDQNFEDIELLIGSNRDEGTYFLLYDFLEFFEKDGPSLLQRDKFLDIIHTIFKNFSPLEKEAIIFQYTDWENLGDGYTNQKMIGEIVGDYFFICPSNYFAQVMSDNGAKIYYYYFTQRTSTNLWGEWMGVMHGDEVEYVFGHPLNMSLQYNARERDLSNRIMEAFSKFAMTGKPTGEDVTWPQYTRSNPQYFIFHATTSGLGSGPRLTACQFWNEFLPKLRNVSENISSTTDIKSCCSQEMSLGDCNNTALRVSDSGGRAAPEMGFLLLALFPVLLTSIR

Compound: CC(F)c1ncnc(NCCc2ccc(OC(F)(F)F)cc2)c1Cl (configuration not stated) [FLUFENERIM]
- LC50 (Myzus persicae [1]): 0.39 mgAi/L
- LC90 (Myzus persicae [1]): 1.12 mgAi/L
- LC50 (Myzus persicae [2]): 0.31 mgAi/L
- LC90 (Myzus persicae [2]): 1.22 mgAi/L
- mortality (Bemisia tabaci [3]): 30%
- mortality (Spodoptera littoralis [4]): 90%
- inhibition (Bemisia tabaci [5]): Active
- mortality (Bemisia tabaci [6]): 90%
- mortality (Spodoptera littoralis [7]): 28%
- LC50 (Bemisia tabaci [8]): 0.35 mgAi/L
- LC90 (Bemisia tabaci [8]): 1.24 mgAi/L
- LC50 (Bemisia tabaci [9]): 0.41 mgAi/L
- LC90 (Bemisia tabaci [9]): 2.4 mgAi/L
- mortality (Spodoptera littoralis [10]): 80%
- mortality (Spodoptera littoralis [11]): >80%
- mortality (Bemisia tabaci [12]): 80%
- mortality (Spodoptera littoralis [13]): 55%
- LC50 (Bemisia tabaci [14]): 2.38 mgAi/L
- LC90 (Bemisia tabaci [14]): 6.32 mgAi/L
- Activity (Bemisia tabaci [15]): inactive
- mortality (Bemisia tabaci [16]): 97%
- mortality (Bemisia tabaci [17]): 94%
- mortality (Spodoptera littoralis [18]): 90%
- mortality (Myzus persicae [19]): 90%
- inhibition (Bemisia tabaci [20]): Active
- inhibition (AChE2 (Bemisia tabaci)): Active
- inhibition (Bemisia tabaci [21]): Active
- LC50 (Spodoptera littoralis [22]): 2.38 mgAi/L

Compound: CNC(=O)ON=C(C)SC [METHOMYL]
- mortality (Spodoptera frugiperda [23]): 5%
- mortality (Spodoptera frugiperda [24]): 50%
- mortality (Bemisia tabaci [17]): 10%
- mortality (Spodoptera littoralis [18]): 6%

— ChEMBL document CHEMBL3045181, “Flufenerim, a novel insecticide acting on diverse insect pests: biological mode of action and biochemical aspects” (2011)
